Among the data in patent publication US7109193B2, “Tricyclic diazepines tocolytic oxytocin receptor antagonists” (Wyeth, priority 2001, dated 2006) are inhibition values, retold here.

The assay has as its target T1, human vasopressin V2 receptor subtype (Homo sapiens, UniProt P30518).
T1 construct: host or cells: CHO cells (pZeoSV vector)
In words: Vasopressin binding in Chinese Hamster Ovary cell membranes expressing human vasopressin V2 subtype receptors. To be noted: 100 nM, CHO cell membranes, [3H]arginine vasopressin, values without parentheses. The procedure, abridged:
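Radioligand displacement on membranes from CHO cells stably expressing human V2 receptor, 25 to 50 μg protein/well, in 50 mM Tris-HCl pH 7.4 with MgCl2, BSA and protease inhibitors. [^3H]arginine vasopressin (8 nM working solution) incubated 60 min at room temperature; bound label measured by filtration and scintillation counting.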

T1 sequence (P30518 whole entry): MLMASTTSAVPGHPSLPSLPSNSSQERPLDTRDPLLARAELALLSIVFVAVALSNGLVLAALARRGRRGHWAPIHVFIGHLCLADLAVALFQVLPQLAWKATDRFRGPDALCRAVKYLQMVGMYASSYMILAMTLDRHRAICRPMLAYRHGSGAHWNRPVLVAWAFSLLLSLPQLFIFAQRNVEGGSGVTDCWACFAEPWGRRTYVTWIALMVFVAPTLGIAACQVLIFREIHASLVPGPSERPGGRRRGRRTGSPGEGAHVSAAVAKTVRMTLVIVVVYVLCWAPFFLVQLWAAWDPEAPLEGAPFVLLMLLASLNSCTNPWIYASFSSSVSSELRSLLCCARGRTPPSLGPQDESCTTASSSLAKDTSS

Turning to `COc1cccc(-c2cc(OC)c(C(=O)N3Cc4ccc(C(=O)N(C)C5CCN(C)CC5)n4Cc4ccccc43)cc2Cl)c1` [Example 181, 10-[(6-Chloro-3,3′-dimethoxy[1,1′-biphenyl]-4-yl)carbonyl]-N-methyl-N-(1-methyl4-piperidinyl)-10,11-dihydro-5H-pyrrolo[2,1-c][1,4]benzodiazepine-3-carboxamide], the inhibition at 0.1 µM is 12%.
For the compound `COc1cc(C(=O)N2Cc3ccc(C(=O)N(C)C4CCN(C)CC4)n3Cc3ccccc32)ccc1-c1cccc2ccccc12` [Example 182, 10-[3-Methoxy-4-(1-naphthyl)benzoyl]-N-methyl-N-(1-methyl-4-piperidinyl)-10,11-dihydro-5H-pyrrolo[2,1-c][1,4]benzodiazepine-3-carboxamide], the inhibition at 0.1 µM is 35%.
As to `COc1ccccc1-c1ccc(C(=O)N2Cc3ccc(C(=O)N(C)C4CCN(C)CC4)n3Cc3ccccc32)cc1OC` [Example 183, 10-[(2,2′-Dimethoxy[1,1′-biphenyl]-4-yl)carbonyl]-N-methyl-N-(1-methyl-4-piperidinyl)-10,11-dihydro-5H-pyrrolo[2,1-c][1,4]benzodiazepine-3-carboxamide], the inhibition at 0.1 µM amounted to 18%.
`Cc1cc(C(=O)N2Cc3ccc(C(=O)N(C)C4CCN(C)CC4)n3Cc3ccccc32)ccc1-c1ccccc1C(F)(F)F` [Example 184, N-Methyl-N-(1-methyl-4-piperidinyl)-10-{[2-methyl-2′-(trifluoromethyl)[1,1′-biphenyl]-4-yl]carbonyl}-10,11-dihydro-5H-pyrrolo[2,1-c][1,4]benzodiazepine-3-carboxamide]: the inhibition at 0.1 µM was 9%.
As for `COc1ccccc1-c1ccc(C(=O)N2Cc3ccc(C(=O)N(C)C4CCN(C)C4)n3Cc3ccccc32)cc1C` (stereo not drawn) [Example 185, 10-[(2′-Methoxy-2-methyl[1,1′-biphenyl]-4-yl)carbonyl]-N-methyl-N-(1-methyl-3-pyrrolidinyl)-10,11-dihydro-5H-pyrrolo[2,1-c][1,4]benzodiazepine-3-carboxamide], the figure is 27%.
With `COc1cccc(-c2ccc(C(=O)N3Cc4ccc(C(=O)N(C)C5CCN(C)C5)n4Cc4ccccc43)cc2C)c1` (stereo not drawn) [Example 186, 10-[(3′-Methoxy-2-methyl[1,1′-biphenyl]-4-yl)carbonyl]-N-methyl-N-(1-methyl-3-pyrrolidinyl)-10,11-dihydro-5H-pyrrolo[2,1-c][1,4]benzodiazepine-3-carboxamide], the inhibition at 0.1 µM came to 8%.
As for `COc1ccccc1-c1ccc(C(=O)N2Cc3ccc(C(=O)N(C)C4CCN(C)C4)n3Cc3ccccc32)cc1` (stereo not drawn) [Example 187, 10-[(2′-Methoxy[1,1′-biphenyl]-4-yl)carbonyl]-N-methyl-N-(1-methyl-3-pyrrolidinyl)-10,11-dihydro-5H-pyrrolo[2,1-c][1,4]benzodiazepine-3-carboxamide], the figure is 31%; as for `Cc1ccccc1-c1ccc(C(=O)N2Cc3ccc(C(=O)N(C)C4CCN(C)C4)n3Cc3ccccc32)cc1` (stereo not drawn) [Example 188, N-Methyl-10-[(2′-methyl[1,1′-biphenyl]-4-yl)carbonyl]-N-(1-methyl-3-pyrrolidinyl)-10,11-dihydro-5H-pyrrolo[2,1-c][1,4]benzodiazepine-3-carboxamide], 10%.
For `COc1cc(C(=O)N2Cc3ccc(C(=O)N(C)C4CCN(C)C4)n3Cc3ccccc32)ccc1-c1ccccc1C` (stereo not drawn) [Example 189, 10-[(2-Methoxy-2′-methyl[1,1′-biphenyl]-4-yl)carbonyl]-N-methyl-N-(1-methyl-3-pyrrolidinyl)-10,11-dihydro-5H-pyrrolo[2,1-c][1,4]benzodiazepine-3-carboxamide] the value was 22%; for `COc1cc(-c2ccccc2C)c(Cl)cc1C(=O)N1Cc2ccc(C(=O)N(C)C3CCN(C)C3)n2Cc2ccccc21` (stereo not drawn) [Example 190, 10-[(6-Chloro-3-methoxy-2′-methyl[1,1′-biphenyl]-4-yl)carbonyl]-N-methyl-N-(1-methyl-3-pyrrolidinyl)-10,11-dihydro-5H-pyrrolo[2,1-c][1,4]benzodiazepine-3-carboxamide], 9%.
For `COc1cccc(-c2cc(OC)c(C(=O)N3Cc4ccc(C(=O)N(C)C5CCN(C)C5)n4Cc4ccccc43)cc2Cl)c1` (stereo not drawn) [Example 191, 10-[(6-Chloro-3,3′-dimethoxy[1,1′-biphenyl]-4-yl)carbonyl]-N-methyl-N-(1-methyl-3-pyrrolidinyl)-10,11-dihydro-5H-pyrrolo[2,1-c][1,4]benzodiazepine-3-carboxamide], the inhibition at 0.1 µM was found to be 17%.
For `COc1cc(C(=O)N2Cc3ccc(C(=O)N(C)C4CCN(C)C4)n3Cc3ccccc32)ccc1-c1cccc2ccccc12` (stereo not drawn) [Example 192, 10-[3-Methoxy-4-(1-naphthyl)benzoyl]-N-methyl-N-(1-methyl-3-pyrrolidinyl)-10,11-dihydro-5H-pyrrolo[2,1-c][1,4]benzodiazepine-3-carboxamide] the value was 28%; for `COc1ccccc1-c1ccc(C(=O)N2Cc3ccc(C(=O)N(C)C4CCN(C)C4)n3Cc3ccccc32)cc1OC` (stereo not drawn) [Example 193, 10-[(2,2′-Dimethoxy[1,1′-biphenyl]-4-yl)carbonyl]-N-methyl-N-(1-methyl-3-pyrrolidinyl)-10,11-dihydro-5H-pyrrolo[2,1-c][1,4]benzodiazepine-3-carboxamide], 16%; for `Cc1cc(C(=O)N2Cc3ccc(C(=O)N(C)C4CCN(C)C4)n3Cc3ccccc32)ccc1-c1ccccc1C(F)(F)F` (stereo not drawn) [Example 194, N-Methyl-N-(1-methyl-3-pyrrolidinyl)-10-{[2-methyl-2′-(trifluoromethyl)[1,1′-biphenyl]-4-yl]carbonyl}-10,11-dihydro-5H-pyrrolo[2,1-c][1,4]benzodiazepine-3-carboxamide], 0%.
For `Cc1ccccc1-c1ccc(C(=O)N2Cc3ccc(C(=O)N4CCN(CCN(C)C)CC4)n3Cc3ccccc32)cc1C` [Example 198, {4-[2-(Dimethylamino)ethyl]-1-piperazinyl}{10-[(2,2′-dimethyl[1,1′-biphenyl]-4-yl)carbonyl]-10,11-dihydro-5H-pyrrolo[2,1-c][1,4]benzodiazepin-3-yl}methanone] the value was 19%; for `Cc1ccccc1-c1ccc(C(=O)N2Cc3ccc(C(=O)N4CCN(CCN(C)C)CC4)n3Cc3ccccc32)cc1` [Example 200, {4-[2-(Dimethylamino)ethyl]-1-piperazinyl}{10-[(2′-methyl[1,1′-biphenyl]-4-yl)carbonyl]-10,11-dihydro-5H-pyrrolo[2,1-c][1,4]benzodiazepin-3-yl}methanone], 10%; for `COc1cc(C(=O)N2Cc3ccc(C(=O)N4CCN(CCN(C)C)CC4)n3Cc3ccccc32)ccc1-c1ccccc1C` [Example 201, {4-[2-(Dimethylamino)ethyl]-1-piperazinyl}{10-[(2-methoxy-2′-methyl[1,1′-biphenyl]-4-yl)carbonyl]-10,11-dihydro-5H-pyrrolo[2,1-c][1,4]benzodiazepin-3-yl}methanone], 19%.
As to `COc1cccc(-c2cc(OC)c(C(=O)N3Cc4ccc(C(=O)N5CCN(CCN(C)C)CC5)n4Cc4ccccc43)cc2Cl)c1` [Example 202, {10-[(6-Chloro-3,3′-dimethoxy[1,1′-biphenyl]-4-yl)carbonyl]-10,11-dihydro-5H-pyrrolo[2,1-c][1,4]benzodiazepin-3-yl}{4-[2-(dimethylamino)ethyl]-1-piperazinyl}methanone], the inhibition at 0.1 µM was 8%.

Broadly, the inhibition is the change of the read-out against control, counted positive when it falls.
